Here are results for 1 compound from patent US20080004281A1, “METHODS FOR THE MODULATION OF CRP BY THE SELECTIVE MODULATION OF PPAR DELTA” (KALYPSYS, INC., priority 2006, published 2008).

The test system of this experiment is plasma CRP. Briefly: Plasma CRP in hyperlipidemic obese rhesus macaques, dose-escalating treatment. The class given is in vivo. As for the experimental part: In the present study, n=6 male obese rhesus macaques were selected for the study and prepared with 4 weeks of diet run-in (week −4 to week 0). At week 0, blood samples were taken in order to determine baseline plasma levels of CRP were measured prior to beginning dosage with Compound 1 as tosylate salt. Dosage began on the same day at 6 mg/kg/day in divided doses, given with food, and continued for four weeks. Dose was subsequently escalated at 4-week intervals to 12 mg/kg/d, 24 mg/kg/d, and finally 48 mg/kg/day. Plasma samples were taken at the close of each 4-week regimen, and a final sample was taken after 4 weeks of washout following discontinuation of dosing.
Quantitative measurements of plasma CRP in each sample taken were made by LabCorp, Inc. (Laboratory Corporation of America) by a multi-calibrator based high sensitivity wide ranged method using a immunoturbidometric assay. The limit of quantitation for the assay was 0.05 mg/dL and the highest point on the calibrator was 32 mg/dL. Mean values as percent change from baseline, and standard deviation as percent change from baseline, were calculated across the group and are shown in Table 2. Mean values for weeks 8-16 fell below the limit of quantiatation, and no data could therefore be reported for the standard deviation.

Molecules are shown by their SMILES. Bounds are passed on as bounds.

Turning to `C[C@@H]1CN(c2ccc(OC(F)(F)F)cc2)C[C@H](C)N1S(=O)(=O)c1cccc2c1CC(C(=O)O)C2` (stereo partly drawn) [Compound 1, 4-[cis-2,6-Dimethyl-4-(4-trifluoromethoxy-phenyl)-piperazine-1-sulfonyl]-indan-2-carboxylic acid], for the setting “over 16 weeks of dose-escalating treatment, hyperlipidemic rhesus macaques”, the “plasma CRP change” value is “significantly reduced”. Also, the “CRP levels during the washout period” value (washout period after 16 weeks of dosing) is reported as “reverted back to the pre-treatment levels”. The Mean Plasma CRP reads like this: (week 4, 6 mg/kg per day in divided doses with food, as tosylate salt, n=6 male obese rhesus macaques, baseline week 0 = 0.233) 0.166 mg/dL; (week 8, 12 mg/kg per day, as tosylate salt, LOQ 0.05) less than 0.05 mg/dL; (week 12, 24 mg/kg per day, as tosylate salt, LOQ 0.05) less than 0.05 mg/dL; (week 16, 48 mg/kg per day, as tosylate salt, LOQ 0.05) less than 0.05 mg/dL; (week 20, after 4 weeks of washout following discontinuation of dosing (dose 0)) 0.183 mg/dL.
